Reference: article doi:10.1101/2022.09.01.506269v1 (biorxiv, 2022)
Read-outs that look alike come from different tables or passages of the source.

Key:
choline transporter = biological target: T1, choline transporter (Homo sapiens, UniProt Q9GZV3); experiment: biochemical
T1 sequence (Q9GZV3 1-580): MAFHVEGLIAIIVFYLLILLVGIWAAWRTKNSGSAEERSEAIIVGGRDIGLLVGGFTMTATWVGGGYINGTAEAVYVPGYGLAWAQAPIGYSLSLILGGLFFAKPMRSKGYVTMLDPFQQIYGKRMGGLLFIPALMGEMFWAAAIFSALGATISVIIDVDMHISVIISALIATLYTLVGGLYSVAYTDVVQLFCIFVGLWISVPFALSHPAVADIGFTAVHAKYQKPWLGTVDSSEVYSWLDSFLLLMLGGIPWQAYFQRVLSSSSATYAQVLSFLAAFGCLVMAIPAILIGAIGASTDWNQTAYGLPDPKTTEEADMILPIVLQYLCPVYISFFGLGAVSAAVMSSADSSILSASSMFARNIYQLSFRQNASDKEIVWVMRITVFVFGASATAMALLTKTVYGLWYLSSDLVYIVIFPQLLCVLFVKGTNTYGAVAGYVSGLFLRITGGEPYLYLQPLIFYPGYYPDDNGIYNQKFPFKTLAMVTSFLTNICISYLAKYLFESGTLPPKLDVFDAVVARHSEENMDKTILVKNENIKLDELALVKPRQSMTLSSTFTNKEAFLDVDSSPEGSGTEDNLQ

CYP3A4 = CYP3A4 (Homo sapiens, UniProt P08684); experiment: CYP3A4 inhibition, method not given; type: biochemical
Sequence of CYP3A4 (P08684 2-503): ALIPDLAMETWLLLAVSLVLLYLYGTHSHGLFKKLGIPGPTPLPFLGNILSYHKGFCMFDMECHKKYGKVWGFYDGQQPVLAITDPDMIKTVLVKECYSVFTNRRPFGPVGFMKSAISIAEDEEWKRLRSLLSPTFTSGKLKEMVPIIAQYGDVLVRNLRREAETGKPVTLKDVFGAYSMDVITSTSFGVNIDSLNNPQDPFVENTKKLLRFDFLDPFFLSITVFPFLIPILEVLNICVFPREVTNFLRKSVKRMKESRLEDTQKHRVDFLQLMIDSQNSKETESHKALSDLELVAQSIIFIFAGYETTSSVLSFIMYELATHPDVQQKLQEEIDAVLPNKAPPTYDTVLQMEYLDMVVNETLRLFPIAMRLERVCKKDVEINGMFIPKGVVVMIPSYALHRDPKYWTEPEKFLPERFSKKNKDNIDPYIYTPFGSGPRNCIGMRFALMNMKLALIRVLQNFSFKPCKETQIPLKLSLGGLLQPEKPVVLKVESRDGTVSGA

D1 = D1 (Homo sapiens, UniProt P21728); experiment: biochemical
Sequence of D1 (P21728 whole entry): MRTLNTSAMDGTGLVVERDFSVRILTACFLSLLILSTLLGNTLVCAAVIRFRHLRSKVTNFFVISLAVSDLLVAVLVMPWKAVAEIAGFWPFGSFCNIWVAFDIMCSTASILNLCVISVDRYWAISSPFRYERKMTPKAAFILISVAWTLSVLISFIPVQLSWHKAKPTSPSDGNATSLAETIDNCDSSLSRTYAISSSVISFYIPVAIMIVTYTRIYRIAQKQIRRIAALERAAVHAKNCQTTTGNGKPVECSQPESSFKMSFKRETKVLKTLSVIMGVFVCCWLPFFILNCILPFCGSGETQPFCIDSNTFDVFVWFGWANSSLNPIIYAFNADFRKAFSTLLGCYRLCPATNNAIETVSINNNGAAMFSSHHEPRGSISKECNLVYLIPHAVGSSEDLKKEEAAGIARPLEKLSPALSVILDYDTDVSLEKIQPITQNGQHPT

[1] = read-out: XEN601 % inhibition at 1 µM
[2] = read-out: XEN602 % inhibition at 1 µM

Row | inhibition at 1 µM (choline transporter; [1]) [%] | IC50 (CYP3A4) [nM] | inhibition at 1 µM (D1; [1]) [%] | inhibition at 1 µM (choline transporter; [2]) [%] | inhibition at 1 µM (D1; [2]) [%] | SMILES
1 | 62 | < 1000 | 69 | – | – | N=C(N)SCc1ccccc1Oc1ccc(-c2ccc(Oc3ccccc3CSC(=N)N)c(CSC(=N)N)c2)cc1CSC(=N)N [compound 5, XEN601]
2 | – | – | – | 52 | 59 | N=C(N)SCc1cc(F)ccc1Oc1ccc(-c2ccc(Oc3ccc(CCCN4CCNCC4)cc3CSC(=N)N)c(CSC(=N)N)c2)cc1CSC(=N)N [compound 6, XEN602]
